Reference: patent publication US20260125378A2, “Heterocyclic Compounds” (BeOne Medicines I GmbH, priority 2023, published 2026)

Assays:
[1] = target: T1, Full length DGKζ (in-house protein M1-V929) (Homo sapiens, UniProt Q13574); experiment: Biochemical DGK IC50 assay (ADP-Glo, lipid micelle substrate), DGKζ; conditions: 1 hour preincubation, 1 hour reaction, room temperature
T1 construct: His (N); TEV site (N); made in house; host or cells: Sf9 insect cells (Bac-to-Bac baculovirus)
How it was run: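 Full-length human DGKζ (M1-V929, His-TEV tagged, Sf9 baculovirus-expressed) with DAG/PS lipid micelle substrate in octyl glucoside, at room temperature in 50 mM HEPES, 10 mM MgCl2, 0.01 mM CaCl2 buffer.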

[2] = target: T2, Full length DGKα (D21-10BG, SignalChem) (Homo sapiens, UniProt P23743); experiment: Biochemical DGK IC50 assay (ADP-Glo, lipid micelle substrate), DGKα; conditions: 1 hour preincubation, 1 hour reaction, room temperature
T2 construct: Full length DGKα (D21-10BG, SignalChem); purchased SignalChem D21-10BG
How it was run: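 Full-length human DGKα with DAG/PS lipid micelle substrate (in octyl glucoside buffer), reacted 1 h at room temperature in 50 mM HEPES, 10 mM MgCl2, 0.01 mM CaCl2, 0.1 mM Na3VO4, 0.01% BSA, 0.005% Tween-20. ADP formed read by ADP-Glo luminescence; IC50 from inhibition across increasing compound concentrations.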

T1 sequence (Q13574 1-929 isoform Q13574-4): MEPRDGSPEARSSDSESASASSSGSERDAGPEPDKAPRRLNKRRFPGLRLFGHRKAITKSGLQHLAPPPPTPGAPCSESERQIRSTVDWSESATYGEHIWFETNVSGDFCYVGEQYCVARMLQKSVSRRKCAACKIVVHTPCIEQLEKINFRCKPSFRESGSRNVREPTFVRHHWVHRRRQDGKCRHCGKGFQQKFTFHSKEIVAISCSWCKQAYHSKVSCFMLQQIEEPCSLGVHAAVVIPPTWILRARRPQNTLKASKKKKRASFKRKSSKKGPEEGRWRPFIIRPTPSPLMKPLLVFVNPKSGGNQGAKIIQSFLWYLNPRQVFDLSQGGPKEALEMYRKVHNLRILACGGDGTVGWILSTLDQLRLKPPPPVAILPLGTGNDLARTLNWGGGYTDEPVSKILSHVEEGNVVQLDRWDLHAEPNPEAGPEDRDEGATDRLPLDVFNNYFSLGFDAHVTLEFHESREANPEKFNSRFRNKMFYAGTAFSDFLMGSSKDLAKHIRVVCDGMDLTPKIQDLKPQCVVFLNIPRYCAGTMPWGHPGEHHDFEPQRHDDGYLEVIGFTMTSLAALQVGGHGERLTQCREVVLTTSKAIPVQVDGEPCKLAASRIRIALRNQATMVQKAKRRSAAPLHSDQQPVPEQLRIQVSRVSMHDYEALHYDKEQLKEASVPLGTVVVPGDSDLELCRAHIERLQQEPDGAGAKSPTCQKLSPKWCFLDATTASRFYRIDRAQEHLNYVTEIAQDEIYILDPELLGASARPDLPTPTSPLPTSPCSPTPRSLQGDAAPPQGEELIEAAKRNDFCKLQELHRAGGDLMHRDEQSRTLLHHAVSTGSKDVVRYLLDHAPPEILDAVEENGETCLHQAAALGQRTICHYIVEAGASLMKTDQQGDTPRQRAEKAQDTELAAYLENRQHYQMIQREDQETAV
T2 sequence (P23743 whole entry): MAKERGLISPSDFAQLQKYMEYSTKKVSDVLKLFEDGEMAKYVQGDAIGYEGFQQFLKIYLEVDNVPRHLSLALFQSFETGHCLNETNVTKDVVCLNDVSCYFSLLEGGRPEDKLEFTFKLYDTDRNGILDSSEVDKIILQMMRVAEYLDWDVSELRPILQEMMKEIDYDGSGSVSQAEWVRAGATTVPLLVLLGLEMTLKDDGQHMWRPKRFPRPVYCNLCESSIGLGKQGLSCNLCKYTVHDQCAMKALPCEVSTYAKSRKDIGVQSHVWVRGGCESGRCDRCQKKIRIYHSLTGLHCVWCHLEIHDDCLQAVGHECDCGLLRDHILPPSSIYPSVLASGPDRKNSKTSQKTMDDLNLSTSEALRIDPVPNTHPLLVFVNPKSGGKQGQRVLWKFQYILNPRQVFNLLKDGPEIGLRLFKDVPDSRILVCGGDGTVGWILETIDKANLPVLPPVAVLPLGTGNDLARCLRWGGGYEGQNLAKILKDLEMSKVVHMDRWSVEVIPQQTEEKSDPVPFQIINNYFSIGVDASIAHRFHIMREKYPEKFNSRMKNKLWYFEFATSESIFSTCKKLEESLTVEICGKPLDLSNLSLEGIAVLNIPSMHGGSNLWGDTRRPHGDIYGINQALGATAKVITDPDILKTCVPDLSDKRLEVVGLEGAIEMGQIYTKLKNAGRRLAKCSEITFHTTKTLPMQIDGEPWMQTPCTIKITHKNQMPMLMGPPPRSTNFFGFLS

Row | SMILES | IC50 [1] | IC50 [2]
1 | CCn1c(CC#N)nc2c(N3C[C@@H](C)N(C(C)c4ccc5c(c4F)OC(C)(C)CO5)C[C@@H]3C)nc(=O)n(C)c21 (stereo partly drawn) [Compound A71, 2-(9-ethyl-6-((2S,5R)-4-(1-(5-fluoro-3,3-dimethyl-2,3-dihydrobenzo[b][1,4]dioxin-6-yl)ethyl)-2,5-dimethylpiperazin-1-yl)-3-methyl-2-oxo-3,9-dihydro-2H-purin-8-yl)acetonitrile] | 48 nM | 124 µM
2 | CCn1c(CC#N)nc2c(N3C[C@@H](C)N(C(C)c4ccc5c(c4)OC(C)(C)CO5)C[C@@H]3C)nc(=O)n(C)c21 (single isomer, unassigned) [Compound A60b] | 206 nM | > 150 µM
3 | Cc1ccc(C(C)N2C[C@H](C)N(c3nc(=O)n(C)c4c3nc(CC#N)n4C)C[C@H]2C)c(C(F)(F)F)c1 (single isomer, unassigned) [Compound A32a] | 3740 nM | > 10 µM
4 | CCn1c(CC#N)nc2c(N3C[C@@H](C)N(C(C)c4ccc5c(c4)OC(F)(F)CO5)C[C@@H]3C)nc(=O)n(C)c21 (single isomer, unassigned) [Compound A80a] | 7 nM | 65.6 µM
5 | CCn1c(CC#N)nc2c(N3C[C@@H](C)N(C(C)c4cccc(C(F)(F)F)c4)C[C@@H]3C)nc(=O)n(C)c21 (single isomer, unassigned) [Compound A42a] | 24 nM | 78.7 µM
6 | CC(c1ccc2c(c1)OC(C)(C)CO2)N1C[C@H](C)N(c2nc(=O)n(C)c3c2nc(CC#N)n3C)C[C@H]1C (single isomer, unassigned) [Compound A59b] | 2.3 nM | 14.2 µM
7 | CC[C@@H]1CN(c2nc(=O)n(C)c3c2nc(CC#N)n3C)[C@@H](C)CN1C(C)c1ccc2c(n1)OC(C)(C)CO2 (mixture of isomers) [Compound A159, 2-(6-((2S,5R)-4-(1-(3,3-dimethyl-2,3-dihydro-[1,4]dioxino[2,3-b]pyridin-6-yl)ethyl)-5-ethyl-2-methylpiperazin-1-yl)-3,9-dimethyl-2-oxo-3,9-dihydro-2H-purin-8-yl)acetonitrile] | 11 nM | 31.5 µM
8 | COC[C@H]1CN(C(C)c2ccc3c(c2)OCCO3)[C@H](C)CN1c1nc(=O)n(C)c2c1nc(CC#N)n2C (single isomer, unassigned) [Compound A11b] | 14 nM | 11.9 µM
9 | CCn1c(CC#N)nc2c(N3C[C@@H](C)N(C(C)c4ccc(C)cc4C(F)(F)F)C[C@@H]3C)nc(=O)n(C)c21 (stereo partly drawn) [Compound A116, 2-(6-((2S,5R)-2,5-dimethyl-4-(1-(4-methyl-2-(trifluoromethyl)phenyl)ethyl)piperazin-1-yl)-9-ethyl-3-methyl-2-oxo-3,9-dihydro-2H-purin-8-yl)acetonitrile] | 350 nM | > 150 µM
10 | CC[C@@H]1CN(c2nc(=O)n(CC)c3c2nc(CC#N)n3C)[C@@H](C)CN1C(C)c1ccc2c(c1)OC(C)(C)CO2 (single isomer, unassigned) [Compound A66b] | 1 nM | 6.86 µM
11 | CCn1c(CC#N)nc2c(N3C[C@@H](C)N(C(C)c4cc(C(F)(F)F)ccn4)C[C@@H]3C)nc(=O)n(C)c21 (stereo partly drawn) [Compound A120, 2-(6-((2S,5R)-2,5-dimethyl-4-(1-(4-(trifluoromethyl)pyridin-2-yl)ethyl)piperazin-1-yl)-9-ethyl-3-methyl-2-oxo-3,9-dihydro-2H-purin-8-yl)acetonitrile] | 1280 nM | > 150 µM
12 | COc1cc(F)ccc1C(C)N1C[C@H](C)N(c2nc(=O)n(C)c3c2nc(CC#N)n3C)C[C@H]1C (single isomer, unassigned) [Compound A24a] | 975 nM | > 10 µM
13 | C=C(C)c1cc(C(C)N2C[C@H](C)N(c3nc(=O)n(C)c4c3nc(CC#N)n4CC)C[C@H]2C)ccc1F (stereo partly drawn) [Compound A135, 2-(9-ethyl-6-((2S,5R)-4-(1-(4-fluoro-3-(prop-1-en-2-yl)phenyl)ethyl)-2,5-dimethylpiperazin-1-yl)-3-methyl-2-oxo-3,9-dihydro-2H-purin-8-yl)acetonitrile] | 14 nM | > 150 µM
14 | CC(c1ccc(F)cc1OC(C)(F)F)N1C[C@H](C)N(c2nc(=O)n(C)c3c2nc(CC#N)n3C)C[C@H]1C (stereo partly drawn) [Compound A31, 2-(6-((2S,5R)-4-(1-(2-(1,1-difluoroethoxy)-4-fluorophenyl)ethyl)-2,5-dimethylpiperazin-1-yl)-3,9-dimethyl-2-oxo-3,9-dihydro-2H-purin-8-yl)acetonitrile] | 4 nM | 110 µM
15 | CCn1c(CC#N)nc2c(N3C[C@@H](C)N(C(C)c4ccc(C)cc4C(F)(F)F)C[C@@H]3C)nc(=O)n(C)c21 (single isomer, unassigned) [Compound A116a] | 7760 nM | > 150 µM
16 | CC(c1ccc2c(c1)OC(C)(C)CO2)N1C[C@H](C)N(c2nc(=O)n(C)c3c2nc(CC#N)n3C2CC2)C[C@H]1C (stereo partly drawn) [Compound A86, 2-(9-cyclopropyl-6-((2S,5R)-4-(1-(3,3-dimethyl-2,3-dihydrobenzo[b][1,4]dioxin-6-yl)ethyl)-2,5-dimethylpiperazin-1-yl)-3-methyl-2-oxo-3,9-dihydro-2H-purin-8-yl)acetonitrile] | 67 nM | > 150 µM
17 | CC(c1ccc(F)cc1C(F)(F)F)N1C[C@H](C)N(c2cc(=O)n(C)c3sc(CC#N)nc23)C[C@H]1C (stereo partly drawn) [Compound A195, 2-(7-((2S,5R)-4-(1-(4-fluoro-2-(trifluoromethyl)phenyl)ethyl)-2,5-dimethylpiperazin-1-yl)-4-methyl-5-oxo-4,5-dihydrothiazolo[5,4-b]pyridin-2-yl)acetonitrile] | 25 nM | > 150 µM
18 | CCn1c(CC#N)nc2c(N3C[C@@H](C)N(C(C)c4cccc(N5CC6(COC6)C5)c4)C[C@@H]3C)nc(=O)n(C)c21 (stereo partly drawn) [Compound A140, 2-(6-((2S,5R)-4-(1-(3-(2-oxa-6-azaspiro[3.3]heptan-6-yl)phenyl)ethyl)-2,5-dimethylpiperazin-1-yl)-9-ethyl-3-methyl-2-oxo-3,9-dihydro-2H-purin-8-yl)acetonitrile] | 594 nM | > 150 µM
19 | CC(c1ccc(C(F)(F)F)cn1)N1C[C@H](C)N(c2nc(=O)n(C)c3c2nc(CC#N)n3C)C[C@H]1C (single isomer, unassigned) [Compound A148b] | 176 nM | 0.666 µM
20 | CCn1c(CC#N)nc2c(N3C[C@@H](C)N(C(C)c4ccc5c(c4)OC(C)(C)CC5)C[C@@H]3C)nc(=O)n(C)c21 (mixture of isomers) [Compound A94, 2-(6-((2S,5R)-4-(1-(2,2-dimethylchroman-7-yl)ethyl)-2,5-dimethylpiperazin-1-yl)-9-ethyl-3-methyl-2-oxo-3,9-dihydro-2H-purin-8-yl)acetonitrile] | 14 nM | 23.2 µM
21 | CCn1c(CC#N)nc2c(N3C[C@@H](C)N(C(C)c4ccc(F)c(C(F)F)c4)C[C@@H]3C)nc(=O)n(C)c21 (stereo partly drawn) [Compound A112, 2-(6-((2S,5R)-4-(1-(3-(difluoromethyl)-4-fluorophenyl)ethyl)-2,5-dimethylpiperazin-1-yl)-9-ethyl-3-methyl-2-oxo-3,9-dihydro-2H-purin-8-yl)acetonitrile] | 35 nM | > 150 µM
22 | Cc1ccc(C(C)N2C[C@H](C)N(c3cc(=O)n(C)c4c3nc(CC#N)n4C)C[C@H]2C)cc1 (single isomer, unassigned) [Compound A5a] | 878 nM | 5.77 µM
23 | CCn1c(CC#N)nc2c(N3C[C@@H](C)N(C(C)c4ccc5c(c4)OC(F)(F)CO5)C[C@@H]3C)nc(=O)n(C)c21 (single isomer, unassigned) [Compound A80b] | 664 nM | > 150 µM
24 | COc1cc(F)ccc1C(C)N1C[C@H](C)N(c2cc(=O)n(C)c3c2nc(CC#N)n3C)C[C@H]1C (single isomer, unassigned) [Compound A4b] | 64 nM | > 10 µM
25 | CC(c1ccc2c(c1)OCCO2)N1C[C@H](C)N(c2nc(=O)n(C)c3c2nc(CC#N)n3C)C[C@H]1C (single isomer, unassigned) [Compound A58a] | 20 nM | 13.3 µM
26 | CCn1c(CC#N)nc2c(N3C[C@@H](C)N(C(C)c4ccc5c(c4)OC4(CCC4)O5)C[C@@H]3C)nc(=O)n(C)c21 (single isomer, unassigned) [Compound A169a] | 10 nM | 31.7 µM
27 | CC(c1cc(F)c2c(c1)OC(C)(C)CO2)N1C[C@H](C)N(c2nc(=O)n(C)c3c2nc(CC#N)n3C)C[C@H]1C (single isomer, unassigned) [Compound A68a] | 2 nM | 20.3 µM
28 | CCn1c(CC#N)nc2c(N3C[C@@H](C)N(C(C)c4ccnc(C(=O)NC)c4)C[C@@H]3C)nc(=O)n(C)c21 (stereo partly drawn) [Compound A130, 4-(1-((2R,5S)-4-(8-(cyanomethyl)-9-ethyl-3-methyl-2-oxo-3,9-dihydro-2H-purin-6-yl)-2,5-dimethylpiperazin-1-yl)ethyl)-N-methylpicolinamide] | 3900 nM | > 150 µM
29 | CCn1c(CC#N)nc2c(N3C[C@@H](C)N(C(C)c4ccc5c(c4F)OC(C)(C)O5)C[C@@H]3C)nc(=O)n(C)c21 (stereo partly drawn) [Compound A175, 2-(9-ethyl-6-((2S,5R)-4-(1-(4-fluoro-2,2-dimethylbenzo[d][1,3]dioxol-5-yl)ethyl)-2,5-dimethylpiperazin-1-yl)-3-methyl-2-oxo-3,9-dihydro-2H-purin-8-yl)acetonitrile] | 5 nM | 22.2 µM
30 | CC[C@H]1CN(C(C)c2ccc3c(c2)OC(C)(C)CO3)[C@H](CC)CN1c1nc(=O)n(C)c2c1nc(CC#N)n2C (single isomer, unassigned) [Compound A64b] | 14 nM | 4.75 µM
